In publication PMC7129073 (Clinical Microbiology and Infection, 2015):
Values after ≈ are worked out from the molar mass of the structure shown. Read-outs that look alike come from different tables or passages of the source.

How the values were obtained:
Escherichia coli O157:H7 = test: Kirby-Bauer susceptibility; assay type: cell-based; settings: 30 strains, 1990–2003
[1] = system: Streptococcus agalactiae strains P0162 and P0425; test: Microdilution; assay type: cell-based
[2] = system: methicillin susceptible Staphylococcus aureus; test: NCCLS agar dilution MIC; assay type: cell-based
MSSA = test: Agar dilution MIC; assay type: cell-based, Staphylococcus aureus
Nocardia spp. [3] = test: Time-kill at peak-serum concentrations, seven strains; assay type: cell-based; settings: of seven strains; 24, 72 h
[4] = system: methicillin resistant Staphylococcus aureus; test: NCCLS agar dilution MIC; assay type: cell-based
[5] = system: viridans group streptococci (VGS); test: MIC; assay type: cell-based
MRSA = test: Agar dilution MIC; assay type: cell-based, Staphylococcus aureus
S. pneumoniae (SPN) = test: NCCLS broth microdilution, fluoroquinolones 1999–2004; assay type: cell-based, Streptococcus pneumoniae; settings: Streptococcus pneumoniae, read-out: MIC90 during the six years, 1999–2004
[6] = system: biofilms of S. aureus (SA204 and SA195) and S. epidermidis (ATCC35983 and ATCC35984); test: Antibiotic lock, in vitro biofilm on polyurethane film, viable counts; assay type: cell-based, Staphylococcus species; settings: any of the time intervals examined
Acinetobacter = test: Disk diffusion; assay type: cell-based; settings: 37 isolates selected as resistant to beta-lactams
Pseudomonas spp. = test: MIC; assay type: cell-based
P. aeruginosa = test: Disk diffusion, urine isolates of BPH patients
[7] = system: Salmonella serotype Typhimurium; test: Disk diffusion, food isolates Spain; assay type: cell-based; settings: n = 53
[8] = system: Salmonella, other 49 serotypes; test: Disk diffusion, food isolates Spain; assay type: cell-based; settings: n = 115
Salmonella spp. = test: Agar dilution susceptibility, gastroenteritis isolates Cuba; assay type: cell-based; settings: 34 strains, 2002
[9] = system: Salmonella serotype Enteritidis; test: Disk diffusion, food isolates Spain; assay type: cell-based; settings: n = 96
N.gonorrhoeae = test: microbe, parasite or virus in culture; assay type: cell-based; settings: Neisseria gonorrhoeae
Nocardia spp. [10] = test: E-test on Mueller Hinton agar, 81 clinical isolates; assay type: cell-based
S. pneumoniae = test: MIC of invasive strains, Saint George Hospital 2001–2004; assay type: cell-based, Streptococcus pneumoniae
H. influenzae = test: Disk diffusion, sputum isolates Athens 2001–2004; assay type: cell-based, Haemophilus influenzae
E. coli = test: Disk diffusion, urine isolates of BPH patients; settings: strains isolated after operative intervention
Pseudomonas aeruginosa = test: MIC, strains from cystic fibrosis patients; settings: by MIC
MDR-MRSA = test: MIC, MBC; assay type: cell-based, Staphylococcus aureus; settings: time kill, two strains
[11] = system: glycopeptide intermediate Staphylococcus species (GISS); test: VITEK II, screening plate and E test, blood isolates; assay type: cell-based, coagulase-negative Staphylococci
enterococci = test: Disk diffusion and E-test, faecal isolates of cancer patients; assay type: cell-based, Enterococcus; settings: 38 strains
CA-MRSA = test: MIC, MBC; assay type: cell-based, Staphylococcus aureus; settings: time kill, two strains

NC[C@H]1O[C@H](O[C@H]2[C@H](O)[C@@H](O[C@H]3O[C@H](CO)[C@@H](O)[C@H](N)[C@H]3O)[C@H](N)C[C@@H]2N)[C@H](O)[C@@H](O)[C@@H]1O [kanamycin]
resistant strains (Escherichia coli O157:H7): 3.3%

COc1c(N2C[C@@H]3CCCN[C@@H]3C2)c(F)cc2c(=O)c(C(=O)O)cn(C3CC3)c12 [moxifloxacin]
MIC ([1]; strain P0162 (ParC Ser79Phe, GyrA Glu85Ala)): 0.5 µg/mL (≈ 1.25 µM)
MIC ([1]; strain P0425 (ParC Ser79Phe, GyrA Glu85Lys)): 2 µg/mL (≈ 4.98 µM)
MIC50 ([2]; Staphylococcus aureus): 0.06 µg/mL (≈ 0.149 µM)
MIC90 ([2]; Staphylococcus aureus): 0.12 µg/mL (≈ 0.299 µM)
MIC range ([2]; n = 41): 0.03 to 8 µg/mL
MIC50 (MSSA; Staphylococcus aureus, MSSA): < 0.025 µg/mL
MIC90 (MSSA; Staphylococcus aureus, MSSA): < 0.0625 µg/mL
MIC range (MSSA; n = 200): 25 to 2000 µg/mL
strains with bactericidal activity (≥3 log10 cfu/ml decrease) (Nocardia spp. [3]): 2 strains
MIC50 ([4]; Staphylococcus aureus): 2 µg/mL (≈ 4.98 µM)
MIC90 ([4]; Staphylococcus aureus): 8 µg/mL (≈ 19.9 µM)
MIC50 [5]: 0.12 µg/mL (≈ 0.299 µM)
MIC90 [5]: 0.25 µg/mL (≈ 0.623 µM)
MIC50 (MRSA; Staphylococcus aureus, MRSA): < 4 µg/mL
MIC90 (MRSA; Staphylococcus aureus, MRSA): < 4 µg/mL
MIC range (MRSA; n = 50): 4 µg/mL (≈ 9.96 µM)
MIC90 (S. pneumoniae (SPN)): 0.12 to 0.25 µg/mL (≈ 0.299 to 0.623 µM)

CCOc1ccc2ccccc2c1C(=O)N[C@@H]1C(=O)N2[C@@H]1SC(C)(C)[C@@H]2C(=O)O [nafcillin]
significant biofilm killing [6]: not achieved

CCN1CCN(C(=O)N[C@@H](C(=O)N[C@@H]2C(=O)N3[C@@H]2SC(C)(C)[C@@H]3C(=O)O)c2ccccc2)C(=O)C1=O [piperacillin]
resistant isolates (Acinetobacter): 100.0%
susceptible strains (Pseudomonas spp.): 84%
resistance (P. aeruginosa): 73.3%

CN[C@@H]1[C@H](O)[C@H](NC)[C@H]2O[C@@]3(O)C(=O)C[C@@H](C)O[C@H]3O[C@@H]2[C@H]1O [spectinomycin]
resistance rate (NCCLS M100-S13) [7]: 87%
resistance rate (NCCLS M100-S13) [8]: 100%
resistance (Salmonella spp.): 50%
resistance rate (NCCLS M100-S13) [9]: 99%
MIC (N.gonorrhoeae): 16 µg/mL (≈ 48.1 µM)
MIC (N.gonorrhoeae; strain 76mu6): 16 µg/mL (≈ 48.1 µM)
MIC (N.gonorrhoeae; strain 76mu10): 8 µg/mL (≈ 24.1 µM)
MIC (N.gonorrhoeae; strain 92mu6): 8 µg/mL (≈ 24.1 µM)
MIC (N.gonorrhoeae; strain 92mu13): 4 µg/mL (≈ 12 µM)

COc1cc(Cc2cnc(N)nc2N)cc(OC)c1OC [trimethoprim]
resistance (Escherichia coli; 1993, E.coli resistant to ampicillin): 28%
resistance (Escherichia coli; 1993, E.coli sensitive to ampicillin): 3%
resistance (Escherichia coli; 2003, E.coli resistant to ampicillin): 43%
resistance (Escherichia coli; 2003, E.coli sensitive to ampicillin): 4%

amoxicillin/clavulanate
MIC50 (Nocardia spp. [10]): 2 µg/mL
MIC90 (Nocardia spp. [10]): 8 µg/mL
% S (S. pneumoniae): 100%
%R (S. pneumoniae): 0%
resistance rate (H. influenzae; 2001–2002): 0%
resistance rate (H. influenzae; 2003–2004): 4.6%
resistance (E. coli): 93.1%

colistin methanesulfonate
Susceptible isolates (Pseudomonas aeruginosa): 98%

teicoplanin
Δ Log10 CFU/ml (MDR-MRSA): −3.82 Log10 CFU/ml
MIC of resistant strains ([11]; 26 strains): 32 to 256 µg/mL
MIC of intermediate sensitive strains ([11]; 47 strains): 16 µg/mL
MIC50 ([2]; n = 41): 1 µg/mL
MIC90 ([2]; n = 41): 1 µg/mL
MIC range ([2]; n = 41): 0.25 to 2 µg/mL
MIC50 ([4]; n = 53): 1 µg/mL
MIC90 ([4]; n = 53): 2 µg/mL
MIC range ([4]; n = 53): 0.5 to 8 µg/mL
tolerant isolates ([5]; 83 isolates, tolerance to VA and TP): 77.6%
MIC50 ([5]; 107 strains, 1990–2003): 0.06 µg/mL
MIC90 ([5]; 107 strains, 1990–2003): 0.12 µg/mL
susceptibility of all isolates ([5]; NCCLS): All isolates were susceptible
sensitivity of all isolated strains (enterococci): All the isolated strains were sensitive
Δ Log10 CFU/ml (CA-MRSA): −1.86 Log10 CFU/ml
